Test system: CD4 T cells
Assay: T cell proliferation by MTT assay
Type: cell-based, mouse
Settings: antibody (CD3 & CD28) stimulation; macelignan 0.01-100 μg/ml
Excerpt: In order to investigate how macelignan directly affects T cells, the cells were stimulated and treated with macelignan at the same time. Wild type and OT-II transgenic mouse CD4 T cells, and antigen presenting cells were used (T cell receptor of CD4 T cells of OT-II transgenic mouse cells is specific for OVA peptide323-339). Wild type CD4 T cells were stimulated with anti-CD3 and anti-CD28 antibodies (BD Pharmigen, San Diego, Calif.), and OT-II transgenic CD4 T cells were stimulated with OVA peptide (Baylor College of Medicine Protein Co-facility). The effect of macelignan was determined by the degree of proliferation of the T cells by MTT assay and by the level of cytokine production. After culturing for 4 days, the level of cytokine production was measured from the supernatant by ELISA. MTT assay was performed using cell proliferation assay kit I (Roche). Cytokines IL-4, IL-17 and IFN-g were detected. ELISA was performed using primary antibody, secondary antibody, streptavidin-alkaline phosphatase (BD Pharmigen) and phosphatase substrate (Sigma-Aldrich, St. Louis, Mo.) according to the manufacturer's instructions.

COc1cc(C[C@H](C)[C@H](C)Cc2ccc3c(c2)OCO3)ccc1O (single isomer, unassigned) [macelignan]
proliferation of T cells: no effect

Reference: patent US8853264B2, “Use of lignan compounds for treating or preventing inflammatory disease” (Newtree Industry Co., Ltd., priority 2005, dated 2014)
